Data taken from patent US10704076B2, “Multi-tiered high through-put screen for compounds effective against bacterial biofilm and compounds effective for inhibiting and eradicating bacterial biofilm” (University of Cincinnati, priority 2013, dated 2020).
Converted amounts (≈) assume the structure as drawn. Like-named read-outs stand apart in the source and are kept apart here.

Columns and labels:
P. aeruginosa biofilm = test: CLSM, co-culture of bacteria with compound (inhibition of biofilm formation); format: cell-based, Pseudomonas aeruginosa; conditions: for killing of residential bacteria, co-culture (CLSM, in words): 10 μM; for Co-culture of bacteria with compound: Killing: Y / —
Protocol: Broad spectrum agents (effective against all three bacterial species) and single agent compounds identified as HTS hits were investigated with CLSM confirmation of inhibition of biofilm formation (culture of bacteria with compounds) or killing of bacteria residing within an established biofilm (compound addition after culturing biofilm). To evaluate inhibition of P. aeruginosa biofilms, bacteria were sub-cultured into 10% L-broth and grown at 37° C. until the OD600 reached 0.25. The bacteria were further diluted 1:100 into a modified 0.5×M63 minimum media (50 mM KH2PO4, 7.5 mM (NH4)2SO4, 9 μM FeSO4, 0.5% casamino acids, 0.2% glucose, and 1 mM MgSO4). A. baumannii biofilms were also grown in 10% L-broth until the OD600 reached 0.05 but diluted 1:10 into 5% L-broth media. S. epidermidis biofilm cultures were grown. Briefly, the bacteria were grown in TSB until the OD600 reached 0.75, and a 1:100 dilution of the bacteria was sub-cultured into phosphate buffered saline (PBS). All of the biofilm bacterial cultures were grown in 96-well plate chambers (MatTek Corp., Ashland, Mass.) in the presence of 10 μM of each compound or DMSO as a control and incubated for 18 hrs at 37° C. To investigate the ability of compounds to kill bacteria within pre-existing biofilms, biofilms were grown under the same conditions, but without test compound. These biofilms were washed once with PBS and incubated an additional 24 hr at 37° C. in PBS containing 300 μM of each compound. All biofilm cultures were then washed twice with 100 μL of PBS and stained using the LIVE/DEAD® BacLight™ Bacterial Viability Kit (Invitrogen). Finally, biofilm images were obtained using a Zeiss LSM510 META Confocal Microscope (Carl Zeiss, Inc., Germany). A 488 nm laser was used in conjunction with a Plan-Apochromat 100×/1.4 Oil DIC objective. Z-stacks were 8 bit and measured 127.3 μm×127.3 μm×16.0 μm in size. The filters used were 505-530 and 620-680 IR, as the excitation and emission wavelengths for red fluorescence are 490 nm and 635 nm, respectively, and 480 nm and 500 nm for green fluorescence. Three dimensional images were generated using the “Projection” ability on LSM Image Browser software (v.1.4.0.121) or Zeiss LSM image browser software version 3.5 (Carl Zeiss, Inc., Germany), and Live/Dead calculations were conducted based upon these images using MacBiophotonics ImageJ following the guidelines in the cell counting guide by C. Labno {Rasband, 1997-2011 #25; Labno, #2} at the University of Chicago Integrated Light Microscopy Core. The thickness of the biofilm was calculated using Comstat software. A hit was defined as a >50% dead to live ratio.
The CLSM experiment was performed in one or two or all bacteria used in this study depending on its activity. For the validation of HTS hits, 10 μM of compound was added to each bacterial suspension and the resulting biofilm stained with LIVE/DEAD® BacLight™ Bacterial Viability Kit. The images were analyzed to determine the live and dead ratios of biofilm bacteria, the thickness of biofilms, and structural attributes of biofilms.

P. aeruginosa = test: MIC determination (CLSI, Mueller Hinton broth), planktonic cultures; format: cell-based, Pseudomonas aeruginosa; conditions: for MIC: Pseudomonas aeruginosa
Protocol: A standard protocol for determining the MIC of a specific compound as outlined by the Clinical and Laboratory Standards Institute (CLSI) was used, based on growth of the selected bacteria in Mueller Hinton (MH) broth with subsequent 2-fold dilutions of compounds of interest. Following the CLSI protocols, the MIC of each broad spectrum “hit” compound was performed in all 3 bacterial species in both aerobic and anaerobic conditions. All bacteria were grown in MH broth for 18 hrs at 37° C. The cells were then diluted 100-fold into MH broth containing compounds at concentrations ranging from 0.40-50 μM in the presence of either KNO3 or glucose to allow bacterial growth under anaerobic condition. After 24 hrs of incubation, cell growth was measured at OD600 using a SpectraMax 190 Absorbance Microplate Reader.
The HTS and CLSM assays identified and confirmed compounds that can inhibit biofilms formation in aerobic growth conditions. However, P. aeruginosa and S. epidermidis are capable of growth under anaerobic as well as aerobic conditions. […] The Minimal Inhibitory Concentrations (MIC) of the four broad agent hit compounds under both aerobic and anaerobic conditions of planktonic P. aeruginosa and S. epidermidis cultures were determined to evaluate compound efficacy in different growth conditions. The MICs for A. baumannii were determined only in aerobic conditions. To examine growth in aerobic conditions, bacteria were grown in either Mueller Hinton (MH) media only, MH media in the presence of 1% KNO3, or MH in the presence of 1% glucose. For MIC determinations under anaerobic conditions, growth was examined in MH media with 1% KNO3 or with 1% glucose.

[1] = MH with 1% KNO3, Aerobic, read-out: Minimum Inhibition Concentration
[2] = MH with 1% KNO3, Anaerobic, read-out: Minimum Inhibition Concentration
[3] = MH, Aerobic, read-out: Minimum Inhibition Concentration
[4] = across all growth conditions (aerobic and anaerobic), read-out: concentration required to inhibit planktonic P. aeruginosa growth (MIC)

MIC (P. aeruginosa; [1]) | MIC (P. aeruginosa; [2]) | MIC (P. aeruginosa; [3]) | MIC (P. aeruginosa; [4]) | SMILES | Co-culture of bacteria with compound: Inhibit biofilm formation (P. aeruginosa biofilm; CLSM, 10 μM compound, 18 hrs) | killing of residential bacteria, co-culture (CLSM, in words) (P. aeruginosa biofilm) | Co-culture of bacteria with compound: Killing (P. aeruginosa biofilm; CLSM, 10 μM compound, 18 hrs) | Minimum Inhibition Concentration (P. aeruginosa; MH with 1% KNO3, Anaerobic)
> 50 µM | 25 ± 12.5 µM (≈ 8.56 µg/mL) | > 50 µM | ≥ 25 µM | O=C(O)c1cn(C2CC2)c2c(F)c(-c3ccncc3)c(F)cc2c1=O [Compound 11, 7-(4-pyridyl)-1-cyclopropyl-6,8-difluoro-4-oxoquinoline-3-carboxylic acid] | no effect |  |  | 
33.3 ± 8.33 µM (≈ 5.82 µg/mL) | 25 µM (≈ 4.37 µg/mL) | > 50 µM | ≥ 25 µM | Cn1sc(Cl)c(C#N)c1=O [Compound 3, 5-chloro-2-methyl-3-oxo-1,2-thiazole-4-carbonitrile] |  | killed residential bacteria | Y (A hit was defined as a >50% dead to live ratio) | 
≤ 20 µM | 7 µM (≈ 2.35 µg/mL) | 10.4 ± 2.08 µM (≈ 3.5 µg/mL) |  | O=C(O)c1cn(C2CC2)c2c(F)c(N3CC(O)C3)c(F)cc2c1=O [Compound 8, 1-cyclopropyl-6,8-difluoro-7-(3-hydroxyazetidin-1-yl)-4-oxoquinoline-3-carboxylic acid] |  |  |  | 7.81 ± 2.71 µM
5.21 ± 1.04 µM (≈ 2.03 µg/mL) | 4.17 ± 1.04 µM (≈ 1.63 µg/mL) | 4.7 ± 1.04 µM (≈ 1.84 µg/mL) | 4 to 5 µM (≈ 1.56 to 1.95 µg/mL) | NC(=S)N1CCN(c2cc3c(cc2F)c(=O)c(C(=O)O)cn3C2CC2)CC1 [Compound 7, 7-(4-carbamothioylpiperazin-1-yl)-1-cyclopropyl-6-fluoro-4-oxoquinoline-3-carboxylic acid] |  | killed residential bacteria | Y (A hit was defined as a >50% dead to live ratio) | 
